Reference: publication PMC7587356, “High-Throughput Screening for Inhibitors of the SARS-CoV-2 Protease Using a FRET-Biosensor” (Molecules, 2020)
Like-named read-outs stand apart in the source and are kept apart here.

Legend:
[1] = target: T1, SARS-CoV-2 3CLpro (Severe acute respiratory syndrome coronavirus 2, UniProt P0DTD1); test: biochemical; assay type: biochemical; conditions: for inhibition at 5 µM: 4 h
[2] = target: T1, SARS-CoV-2 3CLpro; test: biochemical; assay type: biochemical
[3] = sheet LOPAC_screen_w_protease, primary screen at 5 µM, mean of two replicates, read-out: mean (LOPAC screen with protease)
[4] = sheet LOPAC_screen_w_protease, primary screen at 5 µM, replicate 1, read-out: Replicate_1 (LOPAC screen with protease)
[5] = sheet LOPAC_screen_w_protease, primary screen at 5 µM, replicate 2, read-out: Replicate_2 (LOPAC screen with protease)
[6] = with 0.01% Triton X-100; mean ± SD of triplicate; 4 h, 30 °C; read-out: A) EC50 with Triton X-100
[7] = without Triton X-100; mean ± SD of triplicate; 4 h, 30 °C; read-out: B) EC50 without Triton X-100
[8] = sheet LOPAC_screen_w_protease, primary screen at 5 µM, mean of two replicates
[9] = sheet LOPAC_screen_w_protease, primary screen at 5 µM, replicate 1
[10] = sheet LOPAC_screen_w_protease, primary screen at 5 µM, replicate 2
[11] = EC50 with Triton X-100 / EC50 without Triton X-100, ratio greater than 2 suggests aggregation-based inhibitor
[12] = with 0.01% Triton X-100, read-out: EC50
[13] = read-out: Replicate_1 (LOPAC screen with protease)
[14] = read-out: Replicate_2 (LOPAC screen with protease)
[15] = read-out: mean (LOPAC screen with protease)

Compound | EC50 [2, 6] | EC50 [2, 7] | Ratio (A/B) [2] | further results
CCOC(=O)[C@]12CC1/C(=N\O)c1ccccc1O2 (mixture of isomers) [CPCCOEt, reference compound] | > 20 µM | > 20 µM | – | inhibition at 5 µM [1, 3]: 26.9%; inhibition at 5 µM [1, 4]: 0.406%; inhibition at 5 µM [1, 5]: 53.3%
NC(Cc1cc(O)c(O)cc1O)C(=O)O (racemic) [6-Hydroxy-dl-DOPA, reference compound] | 1.32 ± 0.118 µM | 0.652 ± 0.259 µM | – | mean (LOPAC screen with protease) [1, 8]: 66.3118; Replicate_1 (LOPAC screen with protease) [1, 9]: 69.7112; Replicate_2 (LOPAC screen with protease) [1, 10]: 62.9123; Ratio (A/B) [2, 11]: 2.0
CC1(NCC(O)COc2cccc3[nH]ccc23)CCC(C(C)(C)NC(=O)CBr)CC1 (racemic) [(±)-Pindobind, reference compound] | 4.69 ± 3.32 µM | > 20 µM | – | mean (LOPAC screen with protease) [1, 8]: 33.6627; Replicate_1 (LOPAC screen with protease) [1, 9]: 33.8938; Replicate_2 (LOPAC screen with protease) [1, 10]: 33.4316
O=c1oc(Cl)c(Cl)c2ccccc12 [3,4-Dichloroisocoumarin, reference compound] | 8.7 ± 2.72 µM | 5.38 ± 0.612 µM | 1.6 | inhibition at 5 µM [1, 3]: 30.4%; inhibition at 5 µM [1, 4]: 30.8%; inhibition at 5 µM [1, 5]: 30%
O=C(O)c1cc[c]([Hg][Cl])cc1 [4-Chloromercuribenzoic acid, reference compound] | – | 0.095 ± 0.007 µM | 0.9 | mean (LOPAC screen with protease) [1, 8]: 103.38; Replicate_1 (LOPAC screen with protease) [1, 9]: 104.085; Replicate_2 (LOPAC screen with protease) [1, 10]: 102.675; EC50 [2, 12]: 0.085 µM
O=Nc1ccc2oc(=O)ccc2c1 [6-Nitroso-1,2-benzopyrone, reference compound] | 0.882 ± 0.11 µM | 0.559 ± 0.123 µM | 1.6 | mean (LOPAC screen with protease) [1, 8]: 91.133; Replicate_1 (LOPAC screen with protease) [1, 9]: 92.4944; Replicate_2 (LOPAC screen with protease) [1, 10]: 89.7716
CC(C)(C)c1ccc(S(=O)(=O)/C=C/C#N)cc1 [Bay 11-7085, reference compound] | 1.62 ± 0.103 µM | 0.807 ± 0.12 µM | – | mean (LOPAC screen with protease) [1, 8]: 90.2992; Replicate_1 (LOPAC screen with protease) [1, 9]: 92.052; Replicate_2 (LOPAC screen with protease) [1, 10]: 88.5464; Ratio (A/B) [2, 11]: 2.0
O=C1O/C(=C/Br)CCC1c1cccc2ccccc12 (stereo not drawn) [Bromoenol lactone, reference compound] | 0.817 ± 0.121 µM | 0.757 ± 0.073 µM | 1.1 | inhibition at 5 µM [1, 13]: 100%; inhibition at 5 µM [1, 14]: 99.7%; inhibition at 5 µM [1, 15]: 99.9%
O=C(/C=C/c1ccc(O)c(O)c1)OCCc1ccccc1 [Caffeic acid phenethyl ester, reference compound] | > 20 µM | > 20 µM | – | inhibition at 5 µM [1, 3]: 29.6%; inhibition at 5 µM [1, 4]: 30.7%; inhibition at 5 µM [1, 5]: 28.6%
Oc1cc2c(cc1O)CN(C(=S)NCCc1ccc(Cl)cc1)CCC2 [Capsazepine, reference compound] | – | – | 1.4 | inhibition at 5 µM [1, 13]: 91.9%; inhibition at 5 µM [1, 14]: 90.5%; inhibition at 5 µM [1, 15]: 91.2%; EC50 ([2]; A) EC50 with Triton X-100): 0.944 ± 0.098 µM; EC50 ([2]; B) EC50 without Triton X-100): 0.668 ± 0.33 µM
CN(N=O)c1cc(O)ccc1O [Dephostatin, reference compound] | 5.03 ± 1.22 µM | 2.28 ± 0.619 µM | 2.2 | inhibition at 5 µM [1, 3]: 35.5%; inhibition at 5 µM [1, 4]: 36.5%; inhibition at 5 µM [1, 5]: 34.6%
O=c1cc(O)cc(/C=C/c2ccc(O)c(O)c2)o1 [Hispidin, reference compound] | – | – | 2.8 | inhibition at 5 µM [1, 13]: 46.3%; inhibition at 5 µM [1, 14]: 38.9%; inhibition at 5 µM [1, 15]: 42.6%; EC50 ([2]; A) EC50 with Triton X-100): 5 ± 0.554 µM; EC50 ([2]; B) EC50 without Triton X-100): 1.81 ± 0.828 µM
Cc1c(OCC(F)(F)F)ccnc1C[S+]([O-])c1nc2ccccc2[nH]1 (stereo not drawn) [Lansoprazole, reference compound] | – | – | 3.9 | mean (LOPAC screen with protease) [1, 8]: 41.5106; Replicate_1 (LOPAC screen with protease) [1, 9]: 48.0924; Replicate_2 (LOPAC screen with protease) [1, 10]: 34.9288; EC50 ([2]; A) EC50 with Triton X-100): 5.72 ± 0.865 µM; EC50 ([2]; B) EC50 without Triton X-100): 1.46 ± 0.398 µM
CN(N=O)c1ccc(O)c(O)c1 [Me-3,4-dephostatin, reference compound] | 3.78 ± 0.867 µM | 1.82 ± 0.925 µM | 2.1 | mean (LOPAC screen with protease) [1, 8]: 27.3002; Replicate_1 (LOPAC screen with protease) [1, 9]: 29.2005; Replicate_2 (LOPAC screen with protease) [1, 10]: 25.3998
O=C1C(SCCO)=C(SCCO)C(=O)c2ccccc21 [NSC 95397, reference compound] | > 20 µM | > 20 µM | – | mean (LOPAC screen with protease) [1, 8]: 19.1086; Replicate_1 (LOPAC screen with protease) [1, 9]: 20.9168; Replicate_2 (LOPAC screen with protease) [1, 10]: 17.3004
N=C1Sc2ccccc2C2=NCCCN12 [PD 404,182, reference compound] | – | 0.06 ± 0.012 µM | 1.4 | inhibition at 5 µM [1, 3]: 101%; inhibition at 5 µM [1, 4]: 101%; inhibition at 5 µM [1, 5]: 100%; EC50 [2, 12]: 0.081 µM
Oc1cc(O)cc(/C=C/c2ccc(O)c(O)c2)c1 [Piceatannol, reference compound] | 0.569 ± 0.075 µM | 0.455 ± 0.113 µM | 1.3 | inhibition at 5 µM [1, 3]: 92.3%; inhibition at 5 µM [1, 4]: 93.6%; inhibition at 5 µM [1, 5]: 91.1%
C=CCN1CCc2cccc3c2[C@H]1Cc1ccc(O)c(O)c1-3 [R(−)-N-Allylnorapomorphine] | 0.346 ± 0.08 µM | 0.379 ± 0.083 µM | – | Ratio (A/B) [2, 11]: 0.9
CN=c1nc(-c2ccccc2)n(-c2ccccc2)s1 [SCH-202676] | 0.274 ± 0.073 µM | 0.041 ± 0.008 µM | – | Ratio (A/B) [2, 11]: 6.7; reduction in levels of inhibition upon addition of 0.01% Triton X-100 ([2]; with vs without 0.01% Triton X-100): > 2 fold
CN1CCc2cc(O)c(O)cc2C(c2ccccc2)C1 (stereo not drawn) [SKF 75670] | 17.8 ± 8.36 µM | > 20 µM | – | –
CN1CCc2c(cc(O)c(O)c2Cl)C(c2cccc(Cl)c2)C1 (stereo not drawn) [SKF 83565] | > 20 µM | 6.03 ± 3.63 µM | – | –
C[n+]1cc2c3c(ccc2c2ccc4cc5c(cc4c21)OCO5)OCO3 [Sanguinarine] | 1.78 ± 0.497 µM | 2.24 ± 0.586 µM | 0.8 | –
Cc1ccc(S(=O)(=O)N[C@@H](CCCCN)C(=O)CCl)cc1 [TLCK, Tosyl-L-Lys chloromethyl ketone] | 10.6 ± 0.881 µM | > 20 µM | – | EC50 [2, 12]: 10.6 µM
Cc1ccc(S(=O)(=O)N[C@@H](Cc2ccccc2)C(=O)CCl)cc1 [TPCK, Tosyl-L-Phe chloromethyl ketone] | 1.74 ± 0.034 µM | 0.985 ± 0.175 µM | 1.8 | EC50 [2, 12]: 1.74 µM
CC(C)N(CCC(=O)c1ccc2ccccc2c1)Cc1ccccc1 [ZM 39923] | 0.302 ± 0.038 µM | 0.289 ± 0.055 µM | 1.0 | –
O=C(N[C@@H](Cc1ccccc1)C(=O)CCl)OCc1ccccc1 [ZPCK, Z-L-Phe chloromethyl ketone] | 0.234 ± 0.085 µM | 0.136 ± 0.021 µM | 1.7 | EC50 [2, 12]: 0.23 µM
C[N+](C)(C)CCC(=O)c1cccc2ccccc12 [alpha-NETA, 2-(alpha-Naphthoyl)ethyltrimethylammonium] | 0.227 ± 0.014 µM | 0.243 ± 0.051 µM | 0.9 | –
CC(C)C[C@H](N)CS [l-Leucinethiol] | 4.38 ± 0.77 µM | 1.95 ± 0.11 µM | 2.2 | –
Oc1ccc2c3c1O[C@H]1c4[nH]c5c(c4C[C@@]4(O)[C@@H](C2)N(CC2CC2)CC[C@]314)C[C@@]1(O)[C@H]2Cc3ccc(O)c4c3[C@@]1(CCN2CC1CC1)[C@H]5O4 [nor-Binaltorphimine] | 5.2 ± 1.16 µM | 2.6 ± 1.49 µM | – | Ratio (A/B) [2, 11]: 2.0
R(−)-Propylnorapomorphine [R(−)-NPA] | 0.426 ± 0.017 µM | 0.426 ± 0.077 µM | 1.0 | –
